{"source": "patent US11738031B2", "about": "“Compositions and methods for preventing or treating muscle conditions” (The Board of Trustees of the Leland Stanford Junior …, priority 2017, dated 2023)", "key": {"[1]": {"tested_on": "muscle stem cells (MuSCs)", "assay": "MuSC proliferation in culture, cell number count (hemocytometer)", "assay_type": "cell-based, mouse", "conditions": "ONO-AE3-208 1 μM with PGE2 10 ng/ml, 24 hr treatment", "procedure": "(§1) Muscle stem cell culture, treatment and lentiviral infection: Following isolation, we resuspended MuSCs in myogenic cell culture medium containing DMEM/F10 (50:50), 15% FBS, 2.5 ng ml^−1 fibroblast growth factor-2 (FGF-2 also known as bFGF) and 1% penicillin-streptomycin. We seeded MuSC suspensions at a density of 500 cells per cm^2 surface area. We maintained cell cultures at 37° C. in 5% CO2 and changed medium daily. For PGE2, 15-PGDH inhibitor and EP4 receptor antagonist treatment studies, we added 1-200 ng/ml Prostaglandin E2 (Cayman Chemical) (unless specified in the figure legends, 10 ng/ml was the standard concentration used), and/or 1 μM EP4 antagonist (ONO-AE3-208, Cayman Chemical), or 1 μM 15-PGDH inhibitor (SW033291, Cayman Chemical) to the MuSCs cultured on collagen coated dishes for the first 24 h. The cells were then trypsinized and cells reseeded onto hydrogels for an additional 6 days of culture. All treatments were compared to their solvent (DMSO) vehicle control. For stripped serum assays, we resuspended isolated MuSCs in medium containing DMEM/F10 (50:50), 15% charcoal stripped FBS (Gibco, cat #12676011), 2.5 ng ml^−1 bFGF and 1% penicillin-streptomycin. […]\nProliferation assays: To assay proliferation, we used three different assays (hemocytometer, VisionBlue, and EdU). […] For hemocytometer cell number count, we collected cells at indicated timepoints by incubation with 0.5% trypsin in PBS for 5 min at 37° C. and quantified them using a hemocytometer at least 3 times. Additionally, we used the VisionBlue Quick Cell Viability Fluorometric Assay Kit (BioVision, catalog #K303) as a readout for cell growth in culture. Briefly, we incubated MuSCs with 10% VisionBlue in culture medium for 3 h, and measured fluorescence intensity on a fluorescence plate reader (Infinite M1000 PRO, Tecan) at Ex=530-570 nm, Em=590-620 nm. […] We quantified EdU positive cells using the MetaMorph Image Analysis software (Molecular Devices). Data analyses were blinded, where researchers performing cell scoring were unaware of the treatment condition given to sample groups analyzed. […]"}, "aged MuSCs": {"tested_on": "aged MuSCs", "assay": "Aged MuSC proliferation in culture", "assay_type": "cell-based, mouse", "conditions": "PGE2 10 ng/ml or SW033291 1 μM, 24 hr, assayed at day 7", "procedure": "as §1\nProliferation assays: To assay proliferation, we used three different assays (hemocytometer, VisionBlue, and EdU). […] For hemocytometer cell number count, we collected cells at indicated timepoints by incubation with 0.5% trypsin in PBS for 5 min at 37° C. and quantified them using a hemocytometer at least 3 times. Additionally, we used the VisionBlue Quick Cell Viability Fluorometric Assay Kit (BioVision, catalog #K303) as a readout for cell growth in culture. Briefly, we incubated MuSCs with 10% VisionBlue in culture medium for 3 h, and measured fluorescence intensity on a fluorescence plate reader (Infinite M1000 PRO, Tecan) at Ex=530-570 nm, Em=590-620 nm. […] We quantified EdU positive cells using the MetaMorph Image Analysis software (Molecular Devices). Data analyses were blinded, where researchers performing cell scoring were unaware of the treatment condition given to sample groups analyzed."}, "[2]": {"tested_on": "endogenous MuSCs in TA muscle", "assay": "Endogenous MuSC BLI in Pax7CreERT2;Rosa26-LSL-Luc mice after cardiotoxin injury", "assay_type": "in vivo, mouse", "conditions": "single indomethacin injection three days post-cardiotoxin injury", "procedure": "Bioluminescence imaging: We performed bioluminescence imaging (BLI) using a Xenogen-100 system, as previously described^1,5,6. Briefly, we anesthetized mice using isofluorane inhalation and administered 120 μL D-luciferin (0.1 mmol kg^−1, reconstituted in PBS; Caliper LifeSciences) by intraperitoneal injection. We acquired BLI using a 60 s exposure at F-stop=1.0 at 5 minutes after luciferin injection. Digital images were recorded and analyzed using Living Image software (Caliper LifeSciences). We analyzed images with a consistent region-of-interest (ROI) placed over each hindlimb to calculate a bioluminescence signal. We calculated a bioluminescence signal in radiance (p s^−1 cm^−2 sr^−1) value of 10^4 to define an engraftment threshold. This radiance threshold of 10^4 is approximately equivalent to the total flux threshold in p/s reported previously. This BLI threshold corresponds to the histological detection of one or more GFP+ myofibers^1,5,6. We performed BLI imaging every week after transplantation. […]\nWe performed bioluminescence imaging (BLI) using a Xenogen-100 system, as previously described (24, 26, 27, 30). […] Digital images were recorded and analyzed using Living Image software (Caliper LifeSciences). We analyzed images with a consistent region-of-interest (ROI) placed over each hindlimb to calculate a bioluminescence signal. We calculated a bioluminescence signal in radiance (p s^−1 cm^−2 sr^−1) value of 10^4 to define an engraftment threshold. […]\nBioluminescent Imaging: For bioluminescence imaging (BLI), we anesthetized mice using isofluorane inhalation and administered 120 μL D-luciferin (0.1 mmol kg^−1, reconstituted in PBS; Caliper LifeSciences) by intraperitoneal injection. […] Digital images were recorded and analyzed using Living Image software (Caliper LifeSciences). We analyzed images with a consistent region-of-interest (ROI) placed over each hindlimb to calculate a bioluminescence signal. We calculated a bioluminescence signal in radiance (p s^−1 cm^−2 sr^−1) value of 10^4 to define an engraftment threshold. […]"}, "TA muscle": {"tested_on": "TA muscle", "assay": "In vivo muscle force at day 14 post-injury (TA)", "set-up": "species or system mouse", "procedure": "We used an injury model entailing intramuscular injection of 10 μl of notexin (10 μg ml^−1; Latoxan, catalog #L8104) or cardiotoxin (10 μM; Latoxan, catalog #L8102) into the Tibialis anterior (TA) muscle. For cryoinjury, an incision was made in the skin overlying the TA muscle and a copper probe, chilled in liquid nitrogen, was applied to the TA muscle for three 10 s intervals, allowing the muscle to thaw between each application of the cryoprobe. When indicated, 48 hr after injury either 16,16-Dimethyl Prostaglandin E2 (dmPGE2) (13 nmol, Tocris, catalog #4027), Indomethacin (35 μg, Sigma, catalog #17378) or vehicle control (PBS) was injected into the TA muscle. The contralateral TA was used as an internal control, except for the force measurement experiments where each mouse had both legs injured with the same condition and independent mice were used for each condition.\nMice were injured as described in the Muscle injury section. […] Data were collected with a PCI-6251 acquisition card (National Instruments) and analyzed in Matlab. We calculated specific force values by normalizing the force measurements by the muscle physiological cross-sectional areas (PCSAs), which were similar between groups. PCSA (measured in mm^2) was calculated according to the following equation (55): PCSA (mm^2)=[mass (g)×Cos θ]÷[ρ (g/mm^3)×fiber length (mm)], […]"}, "[3]": {"tested_on": "PGE2 levels of conditioned medium from isolated fibers", "assay": "PGE2 ELISA of conditioned medium from isolated fibers", "assay_type": "cell-based, mouse", "conditions": "indomethacin 1 μM, 24 hours", "procedure": "For conditioned medium assays, muscle fibers from the extensor digitorum longus (EDL) were isolated as previously described (53). Fibers were cultured in stripped serum medium in the presence or absence of indomethacin (1 μM, Sigma) for 24 hours. Conditioned medium was collected and measured using the PGE2 ELISA Kit (R&D Systems, catalog #KGE004B) and expressed relative to the collected volume (ml). Each sample was assayed in triplicate and in two independent experiments. […]"}}, "note": "“Also recorded” adds a separate entry of the source.", "data": [{"compound": "CC(C(=O)Nc1cc(C#N)ccc1CCCC(=O)O)c1ccc(F)c2ccccc12", "note": "(stereo not drawn) [ONO-AE3-208]", "values": [{"measurement": "proliferation induced by PGE2 in the presence of EP4 antagonist", "setting": "[1]", "result": "blunted"}]}, {"compound": "CCCC[S+]([O-])c1sc2nc(-c3cccs3)cc(-c3ccccc3)c2c1N", "note": "(stereo not drawn) [SW033291]", "values": [{"measurement": "aged MuSC proliferation and Pax7 expression after 1-day pulse", "setting": "aged MuSCs", "result": "characteristic increase in proliferation and maintenance of Pax7 expression"}]}, {"compound": "COc1ccc2c(c1)c(CC(=O)O)c(C)n2C(=O)c1ccc(Cl)cc1", "note": "[indomethacin]", "values": [{"measurement": "luciferase activity (BLI) of endogenous MuSCs after indomethacin", "setting": "[2]", "result": "significant decrease in luciferase activity; also recorded: decline in BLI relative to controls"}, {"measurement": "reduction in twitch force compared to controls", "setting": "TA muscle; NSAID (indomethacin) treatment, day 14 post-cardiotoxin", "result": "33±7", "unit": "%"}, {"measurement": "Twitch force vs control group", "setting": "TA muscle; indomethacin into cardiotoxin-injured muscles, day 14 post-injury", "result": "significant loss in Twitch force"}, {"measurement": "PGE2 synthesis by isolated myofibers", "setting": "[3]", "result": "markedly reduced"}]}]}
